Assay results taken from PMC8707461, “In Vitro and In Vivo Inhibition of MATE1 by Tyrosine Kinase Inhibitors” (Pharmaceutics, 2021).

How the values were obtained:
MATE1 [1] = target: T1, MATE1 (Homo sapiens, UniProt Q96FL8); assay: [14C]TEA uptake in HEK293 cells overexpressing human MATE1; settings: human
T1 sequence (Q96FL8 1-570): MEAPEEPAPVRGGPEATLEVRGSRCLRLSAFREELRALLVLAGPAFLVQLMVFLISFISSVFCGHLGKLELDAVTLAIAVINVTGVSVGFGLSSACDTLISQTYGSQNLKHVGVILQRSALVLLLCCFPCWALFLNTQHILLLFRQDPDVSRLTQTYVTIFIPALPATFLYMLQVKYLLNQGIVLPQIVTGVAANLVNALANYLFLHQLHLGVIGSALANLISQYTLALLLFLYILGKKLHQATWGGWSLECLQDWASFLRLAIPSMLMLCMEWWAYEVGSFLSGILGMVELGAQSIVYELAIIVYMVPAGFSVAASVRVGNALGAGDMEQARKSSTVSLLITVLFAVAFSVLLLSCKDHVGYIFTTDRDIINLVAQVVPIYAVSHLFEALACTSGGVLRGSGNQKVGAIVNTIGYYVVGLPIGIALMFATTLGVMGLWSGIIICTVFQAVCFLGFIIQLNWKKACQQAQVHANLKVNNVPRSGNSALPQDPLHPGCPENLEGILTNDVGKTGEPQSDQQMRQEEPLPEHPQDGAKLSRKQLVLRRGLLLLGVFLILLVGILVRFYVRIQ
Protocol: Uptake experiments in HEK293 cells overexpressing mouse (m) and human (h) OCT2 or MATE1 were performed with radiolabeled tetraethylammonium (TEA) as the model substrate, using standard methods in the presence or absence of TKIs. The cell culture and uptake conditions for cells expressing mMATE1 or hMATE1 were described previously. […] Since the inhibitory potential of various xenobiotics against OCT2 and MATE1 is dependent on preincubation with perpetrator drugs, a 15-min preincubation period with the TKIs was employed unless stated otherwise. All results were normalized to uptake values in cells transfected with an empty vector or DMSO-treated groups.
MATE1-overexpressed cells were pre-incubated with transport media containing 30 mM ammonium chloride for 20 min at 37 °C following previously published protocol (pH 7.4 for hMATE1 [17, 18, 19] and pH 8.4 for mMATE1 [20, 21]) to ensure interactions can be evaluated between outward-facing MATE1 and substrate uptake before adding inhibitors. Then, preincubation media was removed and cells were incubated with transport media (NH4Cl free) containing radiolabeled compounds. […] The uptake of TEA and metformin was measured by liquid scintillation counting, as described previously. For uptake studies involving platinum drugs, cells were collected with TrypLE, and the pellets were lysed overnight in 0.2% nitric acid. After sonication, total platinum levels were determined by flameless atomic absorption spectrometry.

MATE1 [2] = settings: publicly available information; ref FDA/EMA or supplement refs 1-8; cited from earlier work
[3] = HEK293 cells overexpressing human MATE1, pH 7.4, probe [14C]TEA (tetraethylammonium), 2 µM

SMILES	inhibition at 10 µM (MATE1 [1]; [3]) [%]	IC50 (MATE1 [2]) [µM]	inhibition at 10 µM (MATE1 [1]; pH 7.4) [%]
CC#CC(=O)N1CCC[C@H]1c1nc(-c2ccc(C(=O)Nc3ccccn3)cc2)c2c(N)nccn12 [Acalabrutinib]	43.3		
CN(C)C/C=C/C(=O)Nc1cc2c(Nc3ccc(F)c(Cl)c3)ncnc2cc1O[C@H]1CCOC1 [Afatinib]	89.6	< 10	
CCc1cc2c(cc1N1CCC(N3CCOCC3)CC1)C(C)(C)c1[nH]c3cc(C#N)ccc3c1C2=O [Alectinib]	0		
Cn1cc(-c2cc3c(N4CCN(c5ncc([C@@](C)(N)c6ccc(F)cc6)cn5)CC4)ncnn3c2)cn1 [Avapritinib]	78.6		
CNC(=O)c1ccccc1Sc1ccc2c(/C=C/c3ccccn3)n[nH]c2c1 [Axitinib]	60.8		
CCS(=O)(=O)N1CC(CC#N)(n2cc(-c3ncnc4[nH]ccc34)cn2)C1 [Baricitinib]	55.5		
Cn1cnc2c(F)c(Nc3ccc(Br)cc3F)c(C(=O)NOCCO)cc21 [Binimetinib]	47.6	> 50	
COc1cc(N2CCC(N3CCN(C)CC3)CC2)ccc1Nc1ncc(Cl)c(Nc2ccccc2P(C)(C)=O)n1 [Brigatinib]			95.9
COc1cc2nccc(Oc3ccc(NC(=O)C4(C(=O)Nc5ccc(F)cc5)CC4)cc3)c2cc1OC [Cabozantinib]	95.8	< 10	
CNC(=O)c1ccc(-c2cnc3ncc(Cc4ccc5ncccc5c4)n3n2)cc1F [Capmatinib]	99.7		
Cc1cc(Nc2ncc(Cl)c(Nc3ccccc3S(=O)(=O)C(C)C)n2)c(OC(C)C)cc1C1CCNCC1 [Ceritinib]	96.1		
O=C(c1ccc(F)c(F)c1Nc1ccc(I)cc1F)N1CC(O)([C@@H]2CCCCN2)C1 [Cobimetinib]	83.3		
C[C@@H](Oc1cc(-c2cnn(C3CCNCC3)c2)cnc1N)c1c(Cl)ccc(F)c1Cl [Crizotinib]		[…]	96.8
CC(C)(C)c1nc(-c2cccc(NS(=O)(=O)c3c(F)cccc3F)c2F)c(-c2ccnc(N)n2)s1 [Dabrafenib]	72.1		
COc1cc2ncnc(Nc3ccc(F)c(Cl)c3)c2cc1NC(=O)/C=C/CN1CCCCC1 [Dacomitinib]	91.6		
COC(=O)N[C@@H](C)CNc1nccc(-c2cn(C(C)C)nc2-c2cc(Cl)cc(NS(C)(=O)=O)c2F)n1 [Encorafenib]	66.1		
CN1CCN(c2ccc(C(=O)Nc3n[nH]c4ccc(Cc5cc(F)cc(F)c5)cc34)c(NC3CCOCC3)c2)CC1 [Entrectinib]	99.6		
C#Cc1cccc(Nc2ncnc3cc(OCCOC)c(OCCOC)cc23)c1 [Erlotinib]		[…]	87
Cc1cnc(Nc2ccc(OCCN3CCCC3)cc2)nc1Nc1cccc(S(=O)(=O)NC(C)(C)C)c1 [Fedratinib]	98.6		
COc1cc(Nc2ncc(F)c(Nc3ccc4c(n3)N(COP(=O)(O)O)C(=O)C(C)(C)O4)n2)cc(OC)c1OC [Fostamatinib]	40.2		
COc1cc2ncnc(Nc3ccc(F)c(Cl)c3)c2cc1OCCCN1CCOCC1 [Gefitinib]	91.8		
CCc1nc(C(N)=O)c(Nc2ccc(N3CCC(N4CCN(C)CC4)CC3)c(OC)c2)nc1NC1CCOCC1 [Gilteritinib]	96.7		
CS(=O)(=O)CCNCc1ccc(-c2ccc3ncnc(Nc4ccc(OCc5cccc(F)c5)c(Cl)c4)c3c2)o1 [Lapatinib]		> 10	38.7
O=C(Nc1cnn2ccc(N3CCC[C@@H]3c3cc(F)ccc3F)nc12)N1CC[C@H](O)C1 [Larotrectinib]	21.1		

SMILES	inhibition at 10 µM (MATE1 [1]; [3]) [%]	IC50 (MATE1 [2]) [µM]	inhibition at 10 µM (MATE1 [1]; pH 7.4) [%]
COc1cc2nccc(Oc3ccc(NC(=O)NC4CC4)c(Cl)c3)c2cc1C(N)=O [Lenvatinib]	87.7		
C[C@H]1Oc2cc(cnc2N)-c2c(nn(C)c2C#N)CN(C)C(=O)c2ccc(F)cc21 [Lorlatinib]	61.8		
CO[C@@H]1[C@H](N(C)C(=O)c2ccccc2)C[C@H]2O[C@]1(C)n1c3ccccc3c3c4c(c5c6ccccc6n2c5c31)C(=O)NC4 [Midostaurin]	50		
CCOc1cc2ncc(C#N)c(Nc3ccc(OCc4ccccn4)c(Cl)c3)c2cc1NC(=O)/C=C/CN(C)C [Neratinib]	90.9		
COC(=O)c1ccc2c(c1)NC(=O)/C2=C(\Nc1ccc(N(C)C(=O)CN2CCN(C)CC2)cc1)c1ccccc1 [Nintedanib]	95.3		
C=CC(=O)Nc1cccc(Oc2nc(Nc3ccc(N4CCN(C)CC4)cc3)nc3ccsc23)c1 [Olmutinib]	97.7		
C=CC(=O)Nc1cc(Nc2nccc(-c3cn(C)c4ccccc34)n2)c(OC)cc1N(C)CCN(C)C [Osimertinib]	94.1		
Cc1ccc(Nc2nccc(N(C)c3ccc4c(C)n(C)nc4c3)n2)cc1S(N)(=O)=O [Pazopanib]	90.2	< 0.47	
CCN1C(=O)N(c2c(F)c(OC)cc(OC)c2F)Cc2cnc3[nH]c(CN4CCOCC4)cc3c21 [Pemigatinib]	80.1		
FC(F)(F)c1ccc(CNc2ccc(Cc3c[nH]c4ncc(Cl)cc34)cn2)cn1 [Pexidartinib]	75.6		
Cc1ccc(C(=O)Nc2ccc(CN3CCN(C)CC3)c(C(F)(F)F)c2)cc1C#Cc1cnc2cccnn12 [Ponatinib]		< 10	84.9
CO[C@]1(C(=O)N[C@@H](C)c2ccc(-n3cc(F)cn3)nc2)CC[C@H](c2nc(C)cc(Nc3cc(C)[nH]n3)n2)CC1 [Pralsetinib]	94.5		
Cc1cn(-c2cc(NC(=O)c3ccc(C)c(Nc4nccc(-c5cnccn5)n4)c3)cc(C(F)(F)F)c2)cn1 [Radotinib]	73		
CCn1c(=O)c(-c2cc(NC(=O)Nc3ccccc3)c(F)cc2Br)cc2cnc(NC)cc21 [Ripretinib]	51.9		
N#CC[C@H](C1CCCC1)n1cc(-c2ncnc3[nH]ccc23)cn1 [Ruxolitinib]	63	< 10	
COc1ccc(CN2C3CC2CN(c2ccc(-c4cc(OCC(C)(C)O)cn5ncc(C#N)c45)cn2)C3)cn1 [Selpercatinib]	97.4	0.66	
COc1cc2nccc(Oc3ccc(NC(=O)Nc4cc(C)on4)c(Cl)c3)c2cc1OC [Tivozanib]	90.3		
C[C@@H]1CCN(C(=O)CC#N)C[C@@H]1N(C)c1ncnc2[nH]ccc12 [Tofacitinib]	90.4	~10	
CC(=O)Nc1cccc(-n2c(=O)n(C3CC3)c(=O)c3c(Nc4ccc(I)cc4F)n(C)c(=O)c(C)c32)c1 [Trametinib]	96.1	0.06	
Cc1cc(Nc2ncnc3ccc(NC4=NC(C)(C)CO4)cc23)ccc1Oc1ccn2ncnc2c1 [Tucatinib]	96.3		
CC[C@@H]1CN(C(=O)NCC(F)(F)F)C[C@@H]1c1cnc2cnc3[nH]ccc3n12 [Upadacitinib]	77.2		
COc1cc2c(Nc3ccc(Br)cc3F)ncnc2cc1OCC1CCN(C)CC1 [Vandetanib]	99.5	< 10	
CCCS(=O)(=O)Nc1ccc(F)c(C(=O)c2c[nH]c3ncc(-c4ccc(Cl)cc4)cc23)c1F [Vemurafenib]	34.1		
C=CC(=O)N1CCC([C@@H]2CCNc3c(C(N)=O)c(-c4ccc(Oc5ccccc5)cc4)nn32)CC1 [Zanubrutinib]	94.5		
